Data from PubChem BioAssay (NCI).
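How tested: cells in 96-well plates exposed to compound for 48 hours at five concentrations. GI50 = concentration required for 50% inhibition of growth. TGI: concentration producing complete growth inhibition.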

Key:
Test in all cases: NCI tumour cell line growth inhibition, 48 h
786-0 renal = tested on: 786-0 renal
A498 renal = tested on: A498 renal
A549 NSCLC = tested on: A549 NSCLC
ACHN renal = tested on: ACHN renal
BT-549 breast = tested on: BT-549 breast
CAKI-1 renal = tested on: CAKI-1 renal
CCRF-CEM leukemia = tested on: CCRF-CEM leukemia
DU-145 prostate = tested on: DU-145 prostate
EKVX NSCLC = tested on: EKVX NSCLC
HCC-2998 colon = tested on: HCC-2998 colon
HCT-116 colon = tested on: HCT-116 colon
HL-60(TB) leukemia = tested on: HL-60(TB) leukemia
HOP-92 NSCLC = tested on: HOP-92 NSCLC
HS 578T breast = tested on: HS 578T breast
KM12 colon = tested on: KM12 colon
LOX IMVI melanoma = tested on: LOX IMVI melanoma
M14 melanoma = tested on: M14 melanoma
MALME-3M melanoma = tested on: MALME-3M melanoma
MCF7 breast = tested on: MCF7 breast
MDA-MB-231 breast = tested on: MDA-MB-231 breast
MOLT-4 leukemia = tested on: MOLT-4 leukemia
NCI-H226 lung = tested on: NCI-H226 lung
NCI-H23 lung = tested on: NCI-H23 lung
NCI-H522 lung = tested on: NCI-H522 lung
NCI/ADR-RES ovarian = tested on: NCI/ADR-RES ovarian
OVCAR-3 ovarian = tested on: OVCAR-3 ovarian
OVCAR-4 ovarian = tested on: OVCAR-4 ovarian
OVCAR-5 ovarian = tested on: OVCAR-5 ovarian
OVCAR-8 ovarian = tested on: OVCAR-8 ovarian
PC-3 prostate = tested on: PC-3 prostate
RPMI-8226 leukemia = tested on: RPMI-8226 leukemia
SF-268 CNS = tested on: SF-268 CNS
SF-295 CNS = tested on: SF-295 CNS
SF-539 CNS = tested on: SF-539 CNS
SK-MEL-2 melanoma = tested on: SK-MEL-2 melanoma
SK-MEL-28 melanoma = tested on: SK-MEL-28 melanoma
SK-MEL-5 melanoma = tested on: SK-MEL-5 melanoma
SK-OV-3 ovarian = tested on: SK-OV-3 ovarian
SN12C renal = tested on: SN12C renal
SNB-19 CNS = tested on: SNB-19 CNS
SNB-75 CNS = tested on: SNB-75 CNS
SR leukemia = tested on: SR leukemia
TK-10 renal = tested on: TK-10 renal
U251 CNS = tested on: U251 CNS
UACC-257 melanoma = tested on: UACC-257 melanoma
UACC-62 melanoma = tested on: UACC-62 melanoma
UO-31 renal = tested on: UO-31 renal

Structure (SMILES): Cc1cc2cn3c4ccc(O)cc4nc(N)c3c2cc1C
- GI50 (786-0 renal): 0.0541 µM
- TGI (786-0 renal): 1.7 µM
- GI50 (A498 renal): 0.289 µM
- TGI (A498 renal): 22.7 µM
- GI50 (A549 NSCLC): 0.132 µM
- TGI (A549 NSCLC): 1.46 µM
- GI50 (ACHN renal): < 0.0307 µM
- TGI (ACHN renal): 1.88 µM
- GI50 (BT-549 breast): 2.22 µM
- TGI (BT-549 breast): 20.4 µM
- GI50 (CAKI-1 renal): 0.176 µM
- TGI (CAKI-1 renal): 5.13 µM
- GI50 (CCRF-CEM leukemia): 0.0163 µM
- TGI (CCRF-CEM leukemia): 2.13 µM
- GI50 (DU-145 prostate): 0.0535 µM
- TGI (DU-145 prostate): 1.63 µM
- GI50 (EKVX NSCLC): 0.794 µM
- TGI (EKVX NSCLC): 20.3 µM
- GI50 (HCC-2998 colon): 0.539 µM
- TGI (HCC-2998 colon): 3.78 µM
- GI50 (HCT-116 colon): < 0.01 µM
- TGI (HCT-116 colon): 1.32 µM
- GI50 (HL-60(TB) leukemia): 0.0331 µM
- TGI (HL-60(TB) leukemia): 1.21 µM
- GI50 (HOP-92 NSCLC): 4.89 µM
- TGI (HOP-92 NSCLC): 22.3 µM
- GI50 (HS 578T breast): 0.17 µM
- TGI (HS 578T breast): 11 µM
- GI50 (KM12 colon): < 0.01 µM
- TGI (KM12 colon): 2.45 µM
- GI50 (LOX IMVI melanoma): < 0.01 µM
- TGI (LOX IMVI melanoma): 1.58 µM
- GI50 (M14 melanoma): < 0.0192 µM
- TGI (M14 melanoma): 1.18 µM
- GI50 (MALME-3M melanoma): 2.18 µM
- TGI (MALME-3M melanoma): 26.7 µM
- GI50 (MCF7 breast): 0.429 µM
- TGI (MCF7 breast): 1.76 µM
- GI50 (MDA-MB-231 breast): 0.35 µM
- TGI (MDA-MB-231 breast): 1.69 µM
- GI50 (MOLT-4 leukemia): 0.0828 µM
- TGI (MOLT-4 leukemia): 2.48 µM
- GI50 (NCI-H226 lung): 0.502 µM
- TGI (NCI-H226 lung): 19.2 µM
- GI50 (NCI-H23 lung): 0.266 µM
- TGI (NCI-H23 lung): 5.09 µM
- GI50 (NCI-H522 lung): 0.0175 µM
- TGI (NCI-H522 lung): 0.293 µM
- GI50 (NCI/ADR-RES ovarian): < 0.0204 µM
- TGI (NCI/ADR-RES ovarian): 0.498 µM
- GI50 (OVCAR-3 ovarian): < 0.0176 µM
- TGI (OVCAR-3 ovarian): 1.7 µM
- GI50 (OVCAR-4 ovarian): 1.49 µM
- TGI (OVCAR-4 ovarian): 14.4 µM
- GI50 (OVCAR-5 ovarian): 1.11 µM
- TGI (OVCAR-5 ovarian): 11.5 µM
- GI50 (OVCAR-8 ovarian): 0.18 µM
- TGI (OVCAR-8 ovarian): 1.49 µM
- GI50 (PC-3 prostate): 0.127 µM
- TGI (PC-3 prostate): 5.85 µM
- GI50 (RPMI-8226 leukemia): 0.0713 µM
- TGI (RPMI-8226 leukemia): 2.01 µM
- GI50 (SF-268 CNS): 0.197 µM
- TGI (SF-268 CNS): 5.42 µM
- GI50 (SF-295 CNS): 0.15 µM
- TGI (SF-295 CNS): 1.28 µM
- GI50 (SF-539 CNS): 0.221 µM
- TGI (SF-539 CNS): 1.05 µM
- GI50 (SK-MEL-2 melanoma): < 0.01 µM
- TGI (SK-MEL-2 melanoma): 1.34 µM
- GI50 (SK-MEL-28 melanoma): 0.0961 µM
- TGI (SK-MEL-28 melanoma): 2.1 µM
- GI50 (SK-MEL-5 melanoma): < 0.01 µM
- TGI (SK-MEL-5 melanoma): 0.137 µM
- GI50 (SK-OV-3 ovarian): 0.233 µM
- TGI (SK-OV-3 ovarian): 5 µM
- GI50 (SN12C renal): 0.172 µM
- TGI (SN12C renal): 1.89 µM
- GI50 (SNB-19 CNS): 0.146 µM
- TGI (SNB-19 CNS): 18.6 µM
- GI50 (SNB-75 CNS): 0.211 µM
- TGI (SNB-75 CNS): 9.75 µM
- GI50 (SR leukemia): < 0.0284 µM
- TGI (SR leukemia): 1.74 µM
- GI50 (TK-10 renal): 0.818 µM
- TGI (TK-10 renal): 2.76 µM
- GI50 (U251 CNS): < 0.01 µM
- TGI (U251 CNS): 1.39 µM
- GI50 (UACC-257 melanoma): 1.11 µM
- TGI (UACC-257 melanoma): 3.08 µM
- GI50 (UACC-62 melanoma): < 0.01 µM
- TGI (UACC-62 melanoma): 1.31 µM
- GI50 (UO-31 renal): 0.227 µM
- TGI (UO-31 renal): 3.26 µM
